Laboratory results: article PMC5727127, “H3K14ac is linked to methylation of H3K9 by the triple Tudor domain of SETDB1” (Nature Communications, 2017)

Assays:
SETDB1 3TD W358A (TD3) = biological target: T1, SETDB1 3TD W358A (TD3) (Homo sapiens, UniProt Q15047, W358A); assay: ITC binding of 3TD W358A to H3 peptides; conditions: W358A vs wildtype
T1 construct: cloned into the pET28a-MHL (residues 190–410), pGEX6P2, and pGEX-4T-1 (residues 197–403) vectors; 6×His; made in house; host or cells: E. coli BL21 derivative (SGC) with pRARE
Protocol: (§1) ITC experiments were carried out at 25 °C on a VP-ITC calorimeter (MicroCal). Protein and peptide were kept in an identical buffer of 20 mM Tris/HCl pH 7.0 and 150 mM NaCl. ITC measurements were carried out with protein and ligand concentrations ranging from 50 to 100 μM and 1–2 mM, respectively. Binding isotherms were analyzed by nonlinear least-squares fitting of the data using Microcal ORIGIN software (Microcal) using a one-site binding model.

SETDB1 3TD Y268A = assay: Modified histone peptide array binding of 3TD Y268A; conditions: Y268A vs wildtype; peptide array and ITC assays
Protocol: (§2) Experiments to determine the binding specificity of 3TD wildtype and mutants were performed using CelluSpots peptide arrays (MODified Histone Peptide Array, Active Motif), as described previously, in 20 mM HEPES pH 7.5, 100 mM KCl, 1 mM EDTA, 0.2 mM DTT, and 10% glycerol. All peptide array binding studies were conducted at least in two technical repeats. Annotations of all spots are given in Supplementary Table 2. The amounts of GST-fused Tudor proteins used in peptide array binding and western blot analyses ranged from 0.5 to 100 nM. For methylation analysis, MODified Histone Peptide arrays (Active Motif) were incubated with 20 nM SETDB1 in buffer (50 mM Tris/HCl pH 9.0, 4 mM DTT, 5 mM MgCl2) supplemented with 0.38 µM radioactively labeled [methyl-3H]-AdoMet (Perkin Elmer) for 2 h at room temperature. The arrays were then washed 5 times with wash buffer (100 mM NH4HCO3 and 1% SDS), incubated in Amplify NAMP100 (GE Healthcare) for 5 min, and then exposed to Hyperfilm TM ECL high-performance chemiluminescence film (GE Healthcare) in the dark at −80 °C for 1–7 days.

SETDB1 3TD F332A = assay: Modified histone peptide array binding of 3TD F332A; conditions: replacement of F332 by alanine; peptide array and ITC
Protocol: as §2

[1] = tested on: SETDB1 3TD, GST-tagged, wildtype; assay: Modified histone peptide array binding of 3TD wildtype; conditions: GST-tagged 3TD, modified histone peptide arrays
Protocol: as §2

SETDB1 3TD W358A = assay: Modified histone peptide array binding of 3TD W358A; conditions: W358A vs wildtype
Protocol: as §2

HEK293 cells [2] = assay: Far-western blot of 3TD binding to histones from HDAC inhibitor treated cells; type: cell-based, human; conditions: HEK293, 48 h, 0.4 mM TSA or 5 mM sodium butyrate, 100 nM GST-3TD
Protocol: Native histones were isolated by acid extraction[55] from HEK293 cells, and recombinant histone H3 was purchased from New England Biolabs. For the experiment with HDAC inhibitors, cells were treated for 48 h with 0.4 mM TSA or 5 mM sodium butyrate. Five micrograms of native histones and matching amount of recombinant H3 were electrophoresed on 18% SDS-PAGE and transferred onto nitrocellulose membranes. The membrane was then blocked in 5% milk in TBST and incubated with purified GST-tagged 3TD, followed by the anti-GST (GE Healtcare 27457701A, dilution 1:5000) and anti-goat antibody (Sigma A4174, dilution 1:10000). The amount of GST-fused Tudor protein used in western blot analyses was 100 nM. All experiments were performed in duplicates or triplicates. In the western blots, following antibodies were used: anti-K14ac (Millipore MABE351, dilution for checking specificity: 1:2000 or 1:1000; for western blot: 1:500), anti-H3K9me3 (Abcam ab8898, dilution 1:2000), anti-H3K9me2 (Abcam ab1220, dilution 1:1000), and anti-H3K4me3 (Abcam ab8580, dilution 1:2000). For specificity analysis of antibodies, see Supplementary Fig. 13. Secondary antibodies were anti-rabbit IgG HRP (GE Healtcare NA934, dilution 1:5000) and anti-mouse IgG HRP (GE Healtcare NXA931, dilution 1:5000). Native histone and nucleosome pull-down experiments were done at least in two biological repeats. […]

HEK293 cells [3] = assay: Western blot of histone modifications after HDAC inhibitor treatment; type: cell-based, human; conditions: HEK293, 48 h, 0.4 mM TSA or 5 mM sodium butyrate; for K9 methylation content of H3 from treated cells: western blot anti-K9me; for H3K14ac signal of H3 from treated cells: western blot anti-K14ac
Protocol: Native histones were isolated by acid extraction[55] from HEK293 cells, and recombinant histone H3 was purchased from New England Biolabs. For the experiment with HDAC inhibitors, cells were treated for 48 h with 0.4 mM TSA or 5 mM sodium butyrate. Five micrograms of native histones and matching amount of recombinant H3 were electrophoresed on 18% SDS-PAGE and transferred onto nitrocellulose membranes. The membrane was then blocked in 5% milk in TBST and incubated with purified GST-tagged 3TD, followed by the anti-GST (GE Healtcare 27457701A, dilution 1:5000) and anti-goat antibody (Sigma A4174, dilution 1:10000). The amount of GST-fused Tudor protein used in western blot analyses was 100 nM. All experiments were performed in duplicates or triplicates. In the western blots, following antibodies were used: anti-K14ac (Millipore MABE351, dilution for checking specificity: 1:2000 or 1:1000; for western blot: 1:500), anti-H3K9me3 (Abcam ab8898, dilution 1:2000), anti-H3K9me2 (Abcam ab1220, dilution 1:1000), and anti-H3K4me3 (Abcam ab8580, dilution 1:2000). For specificity analysis of antibodies, see Supplementary Fig. 13. Secondary antibodies were anti-rabbit IgG HRP (GE Healtcare NA934, dilution 1:5000) and anti-mouse IgG HRP (GE Healtcare NXA931, dilution 1:5000). Native histone and nucleosome pull-down experiments were done at least in two biological repeats. All antibodies were used following the manufacturer’s recommendations. Uncropped gel images are shown in Supplementary Fig. 14.

SETDB1 3TD Y268A (TD2) = biological target: T2, SETDB1 3TD Y268A (TD2) (Homo sapiens, UniProt Q15047, Y268A); assay: ITC binding of 3TD Y268A to H3 peptides; conditions: Fig. 2c, Y268A relative to wildtype
T2 construct: cloned into the pET28a-MHL (residues 190–410), pGEX6P2, and pGEX-4T-1 (residues 197–403) vectors; 6×His; made in house; host or cells: E. coli BL21 derivative (SGC) with pRARE
Protocol: as §1

SETDB1 3TD, wildtype = biological target: T3, SETDB1 3TD, wildtype (Homo sapiens, UniProt Q15047); assay: NMR chemical shift perturbation binding to 3TD; conditions: 15N HSQC, 25 °C, pH 7.0, 150 mM NaCl
T3 construct: cloned into the pET28a-MHL (residues 190–410), pGEX6P2, and pGEX-4T-1 (residues 197–403) vectors; 6×His; made in house; host or cells: E. coli BL21 derivative (SGC) with pRARE
Protocol: NMR experiments were collected on a Bruker Avance 500-MHz spectrometer equipped with a cryogenic probe. Chemical shift perturbation experiments were carried out using uniformly ^15N-labeled wildtype 3TD protein in 20 mM Tris/HCl pH 7.0 and 150 mM NaCl. ^1H, ^15N HSQC spectra were recorded at 25 °C in the presence of increasing concentrations of histone tail peptides. K d values were calculated by a nonlinear least-squares analysis in Kaleidagraph using the equation Δδ=ΔδmaxcL+cP+Kd-cL+cP+Kd^2-4cLcP∕2cP, where c L is the concentration of the peptide, c P is the concentration of the protein, Δδ is the observed normalized chemical shift change, and Δδ max is the normalized chemical shift change at saturation, calculated as Δδ=ΔδH^2+ΔδN∕5^2, where δ is the chemical shift in p.p.m.
Supplementary Figure 1: Peptide binding of 3TD. (a) Titration of 3TD binding to peptide arrays. Note the specific binding to H3K9me1/2/3-K14ac double modified […]
concentration (100 nM). (b) ITC analysis of 3TD binding to single modified H3 tail […]
peptides. (c) NMR chemical shift perturbation experiments carried out to detect potentially weak binding of 3TD to H3K14ac, H3K9me3 and unmodified H3. Weak binding of H3K14ac could be detected and the […]
H3 was observed. Panel a relates to Fig. 1, panels b and c to Fig. 2.
(1 picture or pasted object on this page, not shown here)

Compound | change of binding, Y268A (SETDB1 3TD Y268A) | peptide array binding, 3TD [1] | change of peptide array binding, W358A (SETDB1 3TD W358A) | fold reduction of affinity, W358A (SETDB1 3TD W358A (TD3)) [fold] | 3TD binding to histones from treated cells (HEK293 cells [2]) | K9 methylation content of H3 from treated cells (HEK293 cells [3]) | H3K14ac signal of H3 from treated cells (HEK293 cells [3]) | also measured
CCCC(=O)[O-].[Na+] [sodium butyrate] |  |  |  |  | increased 3TD binding | did not change | increased H3K14ac signal | 
C[C@H](NC(=O)[C@@H](NC(=O)[C@H](CCC(N)=O)NC(=O)[C@@H](N)CCCCN)[C@@H](C)O)C(=O)N[C@@H](CCCNC(=N)N)C(=O)N[C@@H](CCCC[N+](C)(C)C)C(=O)N[C@@H](CO)C(=O)N[C@H](C(=O)NCC(=O)NCC(=O)N[C@@H](CCCCN)C(=O)N[C@@H](C)C(=O)N1CCC[C@H]1C(=O)N[C@@H](CCCNC(=N)N)C(=O)N[C@@H](CCCCN)C(=O)N[C@@H](CCC(N)=O)C(=O)O)[C@@H](C)O [H3K9me3] |  |  |  |  |  |  |  | binding detected by NMR (SETDB1 3TD, wildtype): no detectable binding
CC(/C=C/C(=O)NO)=C\[C@@H](C)C(=O)c1ccc(N(C)C)cc1 [trichostatin A] |  |  |  |  | increased 3TD binding | did not change | increased H3K14ac signal | 

Second part, led by results:

change of binding, Y268A (SETDB1 3TD Y268A) | peptide array binding, 3TD [1] | change of peptide array binding, W358A (SETDB1 3TD W358A) | Compound | fold reduction of affinity, W358A (SETDB1 3TD W358A (TD3)) [fold] | 3TD binding to histones from treated cells (HEK293 cells [2]) | K9 methylation content of H3 from treated cells (HEK293 cells [3]) | H3K14ac signal of H3 from treated cells (HEK293 cells [3]) | also measured
not affected | strong and selective binding | strong reduction in binding | CC(=O)NCCCC[C@H](NC(=O)CNC(=O)CNC(=O)[C@@H](NC(=O)[C@H](CO)NC(=O)[C@H](CCCCN(C)C)NC(=O)[C@H](CCCNC(=N)N)NC(=O)[C@H](C)NC(=O)[C@@H](NC(=O)[C@H](CCC(N)=O)NC(=O)[C@@H](N)CCCCN)[C@@H](C)O)[C@@H](C)O)C(=O)N[C@@H](C)C(=O)N1CCC[C@H]1C(=O)N[C@@H](CCCNC(=N)N)C(=O)N[C@@H](CCCCN)C(=O)N[C@@H](CCC(N)=O)C(=O)O [H3K9me2/K14ac] | 18 |  |  |  | change of binding, F332A (SETDB1 3TD F332A): strong reduction in affinity
clear reduction in affinity | strong and selective binding | only moderately reduced | CC(=O)NCCCC[C@H](NC(=O)CNC(=O)CNC(=O)[C@@H](NC(=O)[C@H](CO)NC(=O)[C@H](CCCC[N+](C)(C)C)NC(=O)[C@H](CCCNC(=N)N)NC(=O)[C@H](C)NC(=O)[C@@H](NC(=O)[C@H](CCC(N)=O)NC(=O)[C@@H](N)CCCCN)[C@@H](C)O)[C@@H](C)O)C(=O)N[C@@H](C)C(=O)N1CCC[C@H]1C(=O)N[C@@H](CCCNC(=N)N)C(=O)N[C@@H](CCCCN)C(=O)N[C@@H](CCC(N)=O)C(=O)O [H3K9me3/K14ac] | 2 |  |  |  | relative binding affinity, Y268A (SETDB1 3TD Y268A (TD2)): specific loss in binding
not affected | strong and selective binding | loss | CNCCCC[C@H](NC(=O)[C@H](CCCNC(=N)N)NC(=O)[C@H](C)NC(=O)[C@@H](NC(=O)[C@H](CCC(N)=O)NC(=O)[C@@H](N)CCCCN)[C@@H](C)O)C(=O)N[C@@H](CO)C(=O)N[C@H](C(=O)NCC(=O)NCC(=O)N[C@@H](CCCCNC(C)=O)C(=O)N[C@@H](C)C(=O)N1CCC[C@H]1C(=O)N[C@@H](CCCNC(=N)N)C(=O)N[C@@H](CCCCN)C(=O)N[C@@H](CCC(N)=O)C(=O)O)[C@@H](C)O [H3K9me1/K14ac] |  |  |  |  | loss of binding in ITC, W358A (SETDB1 3TD W358A (TD3)): completely lost
